The text below walks through data of US12042492B2 (priority 2020, dated 2024).

One assay deals with T1, BACE1 (Mus musculus, UniProt P56818).
T1 construct: endogenous in cells; host or cells: N2a mouse neuroblastoma cells (ATCC) transfected with mutant APP Swe/Ind cDNA
The assay is described as follows: Sandwich ELISA of BACE1 activity in mAPP N2a cells. In kind it is cell-based. Conditions: mAPP cells treated with ligand 1 relative to untreated mAPP cells; P=0.001. An excerpt:
ELISA Ligand based inhibition of BACE1 activity, Aβ 40 and 42. BACE1 activity, Levels of Aβ40 and 42. To determine whether ligand 1 lowers BACE1 activity and reducing the Aβ40 and Aβ42 levels, the inventors measured BACE1 activity, Aβ40 and Aβ42 levels in mutant APP cells (N2a+mutant cDNA transfected) treated with ligand 1 using Sandwich ELISA.
The N2a cells grown for 6 days in a serum-free medium (1:1 mixture of DMEM and OptiMEM, plus penicillin and streptomycin (Invitrogen, Carlsbad, CA, USA) until the cells developed neuronal processes. As shown in (FIG. 10), these cells were used for 4 groups—one control group and 3 treatment groups. 1) untreated N2a cells (the control group), 2) N2a cells treated with ligand 1 (N2a+ligand 1), 3) N2a cells transfected mAPP with the (lipofectamine) (20 μM final concentration for 6 hrs (mAPP), 4) N2a cells transfected with mAPP cDNA for 6 hrs, treated with ligand 1 (mAPP+ligand 1 treatment group), N2a cells treated with ligand 1 for 24 hrs and then treated with the mAPP cDNA for 6 hrs (ligand 1+mAPP treatment group). […]
ELISA Ligand based BACE1 inhibition of Aβ 40 and 42. […] For each sample, Aβ1-40 and Aβ1-42 were measured with commercial colorimetric ELISA kits (Biosource International, Camarillo, CA, USA) specific for human. […] Protein concentrations of the homogenates were determined following the […], and Aβ was expressed as pg Aβ/mg protein.
(In an ELISA, binding on a coated surface is turned into a signal by an enzyme label.)

The next assay concerns N2a cells. The assay is described as follows: qRT-PCR mRNA expression in N2a cells treated with ligand 1. In kind it is cell-based, mouse. The protocol:
The N2a cells grown for 6 days in a serum-free medium (1:1 mixture of DMEM and OptiMEM, plus penicillin and streptomycin (Invitrogen, Carlsbad, CA, USA) until the cells developed neuronal processes. As shown in (FIG. 10), these cells were used for 4 groups—one control group and 3 treatment groups. 1) untreated N2a cells (the control group), 2) N2a cells treated with ligand 1 (N2a+ligand 1), 3) N2a cells transfected mAPP with the (lipofectamine) (20 μM final concentration for 6 hrs (mAPP), 4) N2a cells transfected with mAPP cDNA for 6 hrs, treated with ligand 1 (mAPP+ligand 1 treatment group), N2a cells treated with ligand 1 for 24 hrs and then treated with the mAPP cDNA for 6 hrs (ligand 1+mAPP treatment group). As shown in (FIG. 10), the inventors performed 4 independent cell cultures and treatments for all experiments (n=4).
mRNA levels of mitochondrial dynamics and mitochondrial biogenesis and synaptic genes. Using the reagent TriZol (Invitrogen), the inventors isolated total RNA from 4 independent treatments of N2a cells (n=4) from control (untreated N2a cells) and experimental treatments (N2a cells treated with Ligand 1; N2a cells transfected with mAPP; N2a cells transfected with mAPP and then treated with Ligand 1. Using primer express Software (Applied Biosystems), the inventors designed the oligonucleotide primers for the housekeeping genes β-actin, GDPH; APP-related genes (APP, BACE1 and PSN1); mitochondrial structural genes; fission (Drp1 and Fis1); fusion genes (MFN1, MFN2, Opa1) (54), mitochondrial biogenesis genes (PGC1α, Nrf1, Nrf2, and Tfam) (Manczak et al., 2019), and synaptic proteins (SYN, PSD95 and MAP2). The primer sequences and amplicon sizes are listed in (Table 1). With SYBR-Green chemistry-based quantitative real-time RT-PCR, the inventors measured mRNA expression of the genes mentioned above as described by Manczak et al. 2019(54). Briefly, 2 μg of DNAse-treated total RNA was used as starting material, to which the inventors added 1 μl of oligo (dT), 1 μl of 10 mM dNTPs, 4 μl of 5× first strand buffer, 2 μl of 0.1 M DTT, and 1 μl RNAse outout. The reagents RNA, dT), and dNTPs were mixed first, then heated at 65° C. for 5 min, and finally chilled on ice until the remaining components were added. The samples were incubated at 42° C. for 2 min, and then 1 μl of Superscript II (40 U/μl) was added. The samples were then incubated at 42° C. for 50 min, at which time the reaction was inactivated by heating at 70° C. for 15 min.
Quantitative real-time PCR amplification reactions were performed in N2a cells in an ABI Prism 7900 sequence detection system (Applied Biosystems, Foster City, CA) in a 25-μl volume of total reaction mixture. The reaction mixture consisted of 1×PCR buffer containing SYBR-Green; 3 mM MgCl2; 100 nm of each primer; 200 nm of dATP, dGTP, and dCTP each; 400 nm of dUTP; 0.01 U/μl of AmpErase UNG; and 0.05 U/μl of AmpliTaq Gold. A 20 ng cDNA template was added to each reaction mixture.
The CT-values of β-actin was tested to determine the unregulated endogenous reference gene in N2a cells that were treated with Aβ and protective molecules, and in untreated N2a cells. In the latter case, the CT-value was similar in untreated and N2a cells treated with MTAs and Aβ. The CT-value is an important quantitative parameter in real-time PCR analysis as described in Gutala and Reddy (2004) (55). All RT-PCR reactions were carried out in triplicate, with no template control. The PCR conditions were: 50° C. for 2 min and 95° C. for 10 min, followed by 40 cycles of 95° C. for 15 sec and 60° C. for 1 min. The fluorescent spectra were recorded during the elongation phase of each PCR cycle. To distinguish specific amplicons from non-specific amplifications, a dissociation curve was generated. […]
For orientation: Real-time PCR tracks product formation cycle by cycle.

Setting [1] is: N2a + Ligand1 relative to untreated N2a cells.
The mark [2] stands for this setting: N2a + Ligand1 relative to untreated N2a cells, negative = decrease.
[3] abbreviates: ligand 1 treated N2a cells relative to untreated cells, size of the decrease.
Where [4] appears, read: ligand 1 treated N2a cells relative to untreated cells, size of the decrease, no statistical significance.

“Also recorded” adds a separate entry of the source. Marks after values point to notes of the source that are not given here.

T1 sequence (P56818 46-501): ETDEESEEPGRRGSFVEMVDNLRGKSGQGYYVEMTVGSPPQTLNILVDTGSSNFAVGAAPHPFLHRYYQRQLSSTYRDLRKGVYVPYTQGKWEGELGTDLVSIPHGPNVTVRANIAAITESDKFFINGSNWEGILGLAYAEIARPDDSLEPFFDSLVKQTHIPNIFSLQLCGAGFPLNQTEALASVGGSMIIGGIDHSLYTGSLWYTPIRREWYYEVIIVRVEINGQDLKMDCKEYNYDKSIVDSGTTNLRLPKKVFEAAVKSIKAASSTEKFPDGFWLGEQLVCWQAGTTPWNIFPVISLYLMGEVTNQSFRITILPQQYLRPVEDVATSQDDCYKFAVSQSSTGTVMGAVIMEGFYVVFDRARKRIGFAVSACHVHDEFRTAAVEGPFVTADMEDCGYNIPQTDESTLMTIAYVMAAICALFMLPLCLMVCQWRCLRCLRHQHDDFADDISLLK

Regarding “[(6As,8S,10aS,12aS)-10a, 12a-dimethyl-2-oxo-3,4,4a,4b,5,6,6a,7,8,9,10,10b,11,12-tetradecahydro-1H-naphtho[2,1-f]quinolin-8-yl] 4-[4-[bis(2-chloroethyl)amino]phenyl]butanoate [Ligand 1]”, at BACE1, the BACE1 activity result was “significantly lower; also recorded: significantly reduced”. For the same substance, in the assay on N2a cells (setting [1]), the “mRNA fold change Mfn1” value is recorded as 1.1 fold, the “mRNA fold change Mfn2” value amounted to 1.2 fold, the “mRNA fold change Nrf1” value was found to be 1.2 fold and the “mRNA fold change Nrf2” value was found to be 1.3 fold. For the same substance, in the assay with N2a cells (setting [1]), the “mRNA fold change OPA1” value worked out at 1.4 fold, the “mRNA fold change PSD95” value turned out to be 1.2 fold, the “mRNA fold change Synaptophysin” value turned out to be 1.4 fold and the “mRNA fold change TFAM” value is 1.2 fold. Further, in the assay on N2a cells (N2a + Ligand1 relative to untreated N2a cells, listed as Ligand1), the “mRNA fold change PGC1a” value is reported as 1.6* fold. The “mRNA fold change PGC1a” value in the assay with N2a cells (N2a + Ligand1 relative to untreated N2a cells, listed as ligand 1) is given as 1.6 fold. In the assay with N2a cells (setting [2]), the “mRNA fold change APP” value is −1.2 fold, the “mRNA fold change BACE1” value is on record as −1.8** fold, the “mRNA fold change Drp1” value was −1.1 fold and the “mRNA fold change Fis1” value is −1.1 fold. Besides, in the assay on N2a cells (setting [2]), the “mRNA fold change Presenilin1” value is −1.3 fold. For the same substance, in the assay on N2a cells (setting [3]), the “APP mRNA, fold decreased” value turned out to be 1.8 fold; the “BACE1 mRNA, fold decreased” value is listed as 1.2 fold; the “PS1 mRNA, fold decreased” value is 1.3 fold. Also, in the assay with N2a cells (setting [4]), the “Drp1 mRNA, fold reduced” value was determined as 1.1 fold and the “Fis1 mRNA, fold reduced” value stood at 1.1 fold.
